Data: patent US8748480B2, “Methods for treating opioid tolerance” (priority 2005, dated 2014)

Experiments:
Gβ1γ2 Tyr145Ala = molecular target: T1, Gβ1γ2 Tyr145Ala (Rattus norvegicus, UniProt P54311, Y145A); experiment: Phage ELISA, b-βγ mutant Tyr145Ala; type: binding; settings: Gβ1γ2 Tyr145Ala; phage displaying SIGK peptide
T1 construct: made in house; host or cells: Sf9 insect cells (baculovirus)
Source text: (§1) Wild-type Gβ1 and Gβ1 mutants were made in the baculovirus vector PDW464 which encodes a biotinylation site at a lysine upstream of the amino terminus of Gβ1 (Goubaeva, et al. (2003) supra). Mutants were generated by overlap extension PCR using standard protocols. The wild-type and mutant Gβ1 constructs consisted of a 20 amino acid biotin acceptor peptide (BAP) sequence fused in-frame with the amino-terminus of rat Gβ1 subunit. When coexpressed with biotin holoenzyme synthetase (BirA) in Sf9 cells, the Gβ1 subunit becomes covalently biotinylated in vivo at the Specific lysine acceptor residue in the BAP. Using this approach, 1-2 mg protein of purified protein can be obtained per liter of Sf9 insect cells. As 45 ng of protein is used in the phage ELISA assay, a single purification is sufficient for 10,000 to 30,000 binding assays.
(§2) Phage ELISA assays used to assess peptide binding to wild-type and mutant b-βγ were performed according to standard methods (Smrcka and Scott (2002) Methods Enzymol. 344:557-76). Briefly, 1 μg streptavidin was immobilized in the well of a […] overnight at 4° C. The wells were blocked with 100 μL of 2% bovine serum albumin (BSA) in Tris-buffered saline (TBS) for 1 hour at 4° C. followed by three washes of 1×TBS/0.5% TWEEN®. Forty μL of 25 nM bGβ1γ2 in TBS/0.5% TWEEN® was added to each well and incubated at 4° C. for 1.5 hour. The wells were washed, followed by the addition of 1×10^6 to 1×10^10 phage particles and incubated at 4° C. for 3 hours. The wells were then washed six times with TBS/0.5% TWEEN® followed by addition of 40 μL of 1:5000 dilution of anti-M13 antibody (Pharmacia, Uppsala, Sweden) and incubated at room temperature for 1 hour. The wells were washed, followed by the addition of 40 μL of (2,2′-Azino-bis(3-ethylbenzthiazoline)-6-sulfonic acid (ABTS) and the colorimetric reaction was monitored at 405 nm. Non-specific binding was subtracted for each reading.
(§3) Both assays were then carried out with Gβ1γ2 heterodimers containing mutations in the Gβ1 subunit.
(§4) The nine peptides were selected to represent the different consensus groups of peptides previously identified (See Scott et al. (2001) supra; Table 9) and to compare binding characteristics within and between consensus groups. […] As disclosed herein, the binding signal obtained in the ELISA assay was correlated to a loss in affinity by comparing the results to behavior of the peptide in a solution based assay. […] For the purposes of present disclosure, any substitution that decreased the binding to less than 20% of the wild-type binding was considered to be a critical binding contact for that peptide.

Gβ1γ2 Arg314Ala = molecular target: T2, Gβ1γ2 Arg314Ala (Rattus norvegicus, UniProt P54311, R314A); experiment: Phage ELISA, b-βγ mutant Arg314Ala; type: binding; settings: Gβ1γ2 Arg314Ala; phage displaying SIGK peptide
T2 construct: made in house; host or cells: Sf9 insect cells (baculovirus)
Source text: as §1, §2, §3, §4

[1] = molecular target: T3, wild-type b-Gβ1γ2 (Fαi1 binding) (Rattus norvegicus, UniProt P54311); experiment: Flow cytometry competition for FITC-Gαi1 binding to immobilized wild-type b-βγ; settings: Log [SIGK] M −7
T3 construct: made in house; host or cells: Sf9 insect cells (baculovirus) for b-βγ
Source text: as §1, with “BAP.” for “BAP. Using this approach, 1-2 mg protein of purified protein can be obtained per liter of Sf9 insect cells. As 45 ng of protein is used in the phage ELISA assay, a single purification is sufficient for 10,000 to 30,000 binding assays.”
(§5) Blocking of Gαi•Gβ1γ2 binding was assessed by simultaneously adding 200 pM FITC-Gαi with or without SICK to 50 pM immobilized b-βγ and measuring the amount of FITC-Gαi bound to the beads by flow cytometry according to standard methods (Ghosh, et al. (2003) supra; Sarvazyan, et al. (1998) J. Biol. Chem. 273:7934-40).
(§6) Fluorescein-labeled Gαi1 (Fαi1) was prepared in accordance with standard methods (Sarvazyan, et al. (1998) supra). Assays were used to determine peptide effects on Gα-Gβγ interactions included competition and dissociation assays (Ghosh, et al. (2003) supra). […] The bead-associated fluorescence was then recorded in a BD Biosciences FACSCALIBUR™ flow cytometer. Data was corrected for background fluorescence and fit with a sigmoid dose response curve using Graph Pad Prism 4. […]

Gβ1γ2 Asp246Ser = molecular target: T4, Gβ1γ2 Asp246Ser (Rattus norvegicus, UniProt P54311, D246S); experiment: Phage ELISA, b-βγ mutant Asp246Ser; type: binding; settings: Gβ1γ2 Asp246Ser; phage displaying SIGK peptide
T4 construct: made in house; host or cells: Sf9 insect cells (baculovirus)
Source text: as §1, §2, §3, §4

Gβ1γ2 Met101Ala = molecular target: T5, Gβ1γ2 Met101Ala (Rattus norvegicus, UniProt P54311, M101A); experiment: Phage ELISA, b-βγ mutant Met101Ala; type: binding; settings: Gβ1γ2 Met101Ala; phage displaying SIGK peptide
T5 construct: made in house; host or cells: Sf9 insect cells (baculovirus)
Source text: as §1, §2, §3, §4

Gβ1γ2 Trp99Ala = molecular target: T6, Gβ1γ2 Trp99Ala (Rattus norvegicus, UniProt P54311, W99A); experiment: Phage ELISA, b-βγ mutant Trp99Ala; type: binding
T6 construct: made in house; host or cells: Sf9 insect cells (baculovirus)
Source text: as §1, §2, §3, §4

Gβ1γ2 Leu117Ala = molecular target: T7, Gβ1γ2 Leu117Ala (Rattus norvegicus, UniProt P54311, L117A); experiment: Phage ELISA, b-βγ mutant Leu117Ala; type: binding; settings: Gβ1γ2 Leu117Ala; phage displaying SIGK peptide
T7 construct: made in house; host or cells: Sf9 insect cells (baculovirus)
Source text: as §1, §2, §3, §4

Gβ1γ2 Phe292Ala = molecular target: T8, Gβ1γ2 Phe292Ala (Rattus norvegicus, UniProt P54311, F292A); experiment: Phage ELISA, b-βγ mutant Phe292Ala; type: binding; settings: phage displaying SIGK peptide
T8 construct: made in house; host or cells: Sf9 insect cells (baculovirus)
Source text: as §1
(§7) Phage ELISA assays used to assess peptide binding to wild-type and mutant b-βγ were performed according to standard methods (Smrcka and Scott (2002) Methods Enzymol. 344:557-76). Briefly, 1 μg streptavidin was immobilized in the well of a 96-six well plate overnight at 4° C. […] The wells were washed, followed by the addition of 40 μL of (2,2′-Azino-bis(3-ethylbenzthiazoline)-6-sulfonic acid (ABTS) and the colorimetric reaction was monitored at 405 nm. Non-specific binding was subtracted for each reading. […]

Gβ1γ2 His311Ala = molecular target: T9, Gβ1γ2 His311Ala (Rattus norvegicus, UniProt P54311, H311A); experiment: Phage ELISA, b-βγ mutant His311Ala; type: binding; settings: Gβ1γ2 His311Ala; phage displaying SIGK peptide
T9 construct: made in house; host or cells: Sf9 insect cells (baculovirus)
Source text: as §1, §2, §3, §4

Gβ1γ2 Lys57Ala = molecular target: T10, Gβ1γ2 Lys57Ala (Rattus norvegicus, UniProt P54311, K57A); experiment: Phage ELISA, b-βγ mutant Lys57Ala; type: binding; settings: Gβ1γ2 Lys57Ala; phage displaying SIGK peptide
T10 construct: made in house; host or cells: Sf9 insect cells (baculovirus)
Source text: as §1, §2, §3, §4

Gβ1γ2 His62Ala = molecular target: T11, Gβ1γ2 His62Ala (Rattus norvegicus, UniProt P54311, H62A); experiment: Phage ELISA, b-βγ mutant His62Ala; type: binding; settings: phage displaying SIGK peptide
T11 construct: made in house; host or cells: Sf9 insect cells (baculovirus)
Source text: as §1, §7

[2] = molecular target: T12, b-βγ Trp332Ala (Fαi1 binding) (Rattus norvegicus, UniProt P54311, W332A); experiment: Flow cytometry competition for FITC-Gαi1 binding, b-βγ Trp332Ala; settings: Log [SIGK] M −7
T12 construct: made in house; host or cells: Sf9 insect cells (baculovirus)
Source text: as §1, with “BAP.” for “BAP. Using this approach, 1-2 mg protein of purified protein can be obtained per liter of Sf9 insect cells. As 45 ng of protein is used in the phage ELISA assay, a single purification is sufficient for 10,000 to 30,000 binding assays.”
as §5, §6

Gβ1γ2 Met188Ala = molecular target: T13, Gβ1γ2 Met188Ala (Rattus norvegicus, UniProt P54311, M188A); experiment: Phage ELISA, b-βγ mutant Met188Ala; type: binding; settings: Gβ1γ2 Met188Ala; phage displaying SIGK peptide
T13 construct: made in house; host or cells: Sf9 insect cells (baculovirus)
Source text: as §1, §2, §3, §4

[3] = molecular target: T14, b-βγ Arg314Ala (Fαi1 binding) (Rattus norvegicus, UniProt P54311, R314A); experiment: Flow cytometry competition for FITC-Gαi1 binding, b-βγ Arg314Ala; settings: Log [SIGK] M −7
T14 construct: made in house; host or cells: Sf9 insect cells (baculovirus)
Source text: as §1, with “BAP.” for “BAP. Using this approach, 1-2 mg protein of purified protein can be obtained per liter of Sf9 insect cells. As 45 ng of protein is used in the phage ELISA assay, a single purification is sufficient for 10,000 to 30,000 binding assays.”
as §5, §6

Gβ1γ2 Trp332Ala = molecular target: T15, Gβ1γ2 Trp332Ala (Rattus norvegicus, UniProt P54311, W332A); experiment: Phage ELISA, b-βγ mutant Trp332Ala; type: binding; settings: Gβ1γ2 Trp332Ala; phage displaying SIGK peptide
T15 construct: made in house; host or cells: Sf9 insect cells (baculovirus)
Source text: as §1, §2, §3, §4

CC[C@H](C)[C@H](NC(=O)[C@H](CCCCN)NC(=O)[C@H](Cc1ccccc1)NC(=O)[C@H](C)NC(=O)[C@H](CCCCN)NC(=O)CNC(=O)[C@@H](NC(=O)[C@@H](N)CO)[C@@H](C)CC)C(=O)N[C@@H](CC(C)C)C(=O)NCC(=O)N[C@@H](Cc1ccc(O)cc1)C(=O)N1CCC[C@H]1C(=O)N[C@@H](CC(=O)O)C(=O)N[C@@H](Cc1ccc(O)cc1)C(=O)N[C@@H](CC(=O)O)C(=O)O [SIGK]
% of Wild-Type Signal (mean ± SD) (Gβ1γ2 Tyr145Ala): 0.8 ± 0.9% | % of Wild-Type Signal (mean ± SD) (Gβ1γ2 Arg314Ala): 50.2 ± 5.0% | % Maximal Fα Binding (± SD) [1]: 100.0 ± 0.0% | % of Wild-Type Signal (mean ± SD) (Gβ1γ2 Asp246Ser): 66.5 ± 7.5% | % of Wild-Type Signal (mean ± SD) (Gβ1γ2 Met101Ala): 32.2 ± 15.5% | % of Wild-Type Signal (mean ± SD) (Gβ1γ2 Trp99Ala; Gβ1γ2 Trp99Ala, phage displaying SIGK peptide): 66.0 ± 7.7% | decrease in affinity (Gβ1γ2 Trp99Ala; Trp99 mutation of Gβ1): 4 fold | % of Wild-Type Signal (mean ± SD) (Gβ1γ2 Leu117Ala): 2.1 ± 2.4% | % of Wild-Type Signal (mean ± SD) (Gβ1γ2 Phe292Ala): 109.1 ± 21.4% | % of Wild-Type Signal (mean ± SD) (Gβ1γ2 His311Ala): 94.3 ± 18.9% | % of Wild-Type Signal (mean ± SD) (Gβ1γ2 Lys57Ala): 18.6 ± 4.6% | % of Wild-Type Signal (mean ± SD) (Gβ1γ2 His62Ala): 111.2 ± 11.3% | % Maximal Fα Binding (± SD) [2]: 100.0 ± 0.0% | % of Wild-Type Signal (mean ± SD) (Gβ1γ2 Met188Ala): 2.5 ± 3.7% | % Maximal Fα Binding (± SD) [3]: 100.0 ± 0.0% | % of Wild-Type Signal (mean ± SD) (Gβ1γ2 Trp332Ala): 7.1 ± 3.7%
